The source made the active and inactive calls. The calls are words filed in the database; no cut-off is given here.
How the values were obtained:
Haemonchus contortus [1] = assay: Nematocidal activity against Haemonchus contortus Haecon 5 strain isolated from helminth-free Merino weaner sheep after 6 days by larval development assay; type: functional; conditions: for LC50: Haemonchus contortus, Haecon 5 strain, 144 h, read-out: LD50 (the source's name)
[2] = Cytotoxicity against human MCF7 cells after 72 hrs by MTT assay; type: cell-based
Haemonchus contortus [3] = assay: Nematocidal activity against Haemonchus contortus Haecon 5 strain isolated from helminth-free Merino weaner sheep at 12.5 to 100 uM after 6 days by larval development assay; type: functional, organism-based
[4] = Cytotoxicity against human SJ-G2 cells after 72 hrs by MTT assay; type: cell-based
[5] = Cytotoxicity against human A431 cells after 72 hrs by MTT assay; type: cell-based, A-431
[6] = Cytotoxicity against human H460 cells after 72 hrs by MTT assay; type: cell-based; conditions: NCI-H460 cells
[7] = Cytotoxicity against human HT-29 cells after 72 hrs by MTT assay; type: cell-based
[8] = Cytotoxicity against human SW480 cells after 72 hrs by MTT assay; type: cell-based
[9] = Cytotoxicity against human DU145 cells after 72 hrs by MTT assay; type: cell-based, DU-145
[10] = Cytotoxicity against human A2780 cells after 72 hrs by MTT assay; type: cell-based
[11] = Cytotoxicity against human BE(2)-C cells after 72 hrs by MTT assay; type: cell-based

| SMILES | LD99 (Haemonchus contortus [1]) | LC50 (Haemonchus contortus [1]) | GI50 at 72 h [2] | inhibition (Haemonchus contortus [3]) | GI50 at 72 h [4] | GI50 at 72 h [5] | GI50 at 72 h [6] | GI50 at 72 h [7] | GI50 at 72 h [8] | GI50 at 72 h [9] | GI50 at 72 h [10] | GI50 at 72 h [11] |
| --- | --- | --- | --- | --- | --- | --- | --- | --- | --- | --- | --- | --- |
| N#C/C(=C\c1ccc[nH]1)c1ccc(Cl)cc1 | 25 µM | 10 µM | – | – | – | – | – | – | – | – | – | – |
| CCCCCCCCN1C(=O)[C@@H]2[C@H](C1=O)[C@H]1CC[C@@H]2O1 | 80 µM | 40 µM | – | – | – | – | – | – | – | – | – | – |
| CCCCCCCCNC(=O)C1C(C(=O)O)[C@@H]2CC[C@H]1O2 (some centres not stated) | – | – | 10 µM | inactive | 10 µM | 10 µM | 10 µM | 10 µM | 10 µM | 10 µM | 10 µM | 10 µM |
| CCCCNC(=O)C1C(C(=O)O)[C@@H]2CC[C@H]1O2 (some centres not stated) | – | – | 10 µM | inactive | 10 µM | 10 µM | 10 µM | 10 µM | 10 µM | 10 µM | 10 µM | 10 µM |
| O=C(O)CCCCCCCNC(=O)C1C(C(=O)O)[C@@H]2CC[C@H]1O2 (some centres not stated) | – | – | 10 µM | inactive | 10 µM | 10 µM | 10 µM | 10 µM | 10 µM | 10 µM | 10 µM | 10 µM |
| C=CCNC(=O)C1C(C(=O)O)[C@@H]2CC[C@H]1O2 (some centres not stated) | – | – | 10 µM | inactive | 10 µM | 10 µM | 10 µM | 10 µM | 10 µM | 10 µM | 10 µM | 10 µM |
| O=C(O)C1C(C(=O)Nc2ccc(CO)cc2)[C@H]2CC[C@@H]1O2 (some centres not stated) | – | – | 10 µM | inactive | 10 µM | 10 µM | 10 µM | 10 µM | 10 µM | 10 µM | 10 µM | 10 µM |
| CCc1ccccc1NC(=O)C1C(C(=O)O)[C@@H]2CC[C@H]1O2 (some centres not stated) | – | – | 10 µM | inactive | 10 µM | 10 µM | 10 µM | 10 µM | 10 µM | 10 µM | 10 µM | 10 µM |
| Cc1cc(C)c(NC(=O)C2C(C(=O)O)[C@@H]3CC[C@H]2O3)c(C)c1 (some centres not stated) | – | – | 10 µM | inactive | 10 µM | 10 µM | 10 µM | 10 µM | 10 µM | 10 µM | 10 µM | 10 µM |
| O=C(O)C1C(C(=O)NCc2ccc(Cl)cc2)[C@H]2CC[C@@H]1O2 (some centres not stated) | – | – | 10 µM | inactive | 10 µM | 10 µM | 10 µM | 10 µM | 10 µM | 10 µM | 10 µM | 10 µM |
| CCCCCCCCCCNC(=O)C1C(C(=O)O)[C@@H]2CC[C@H]1O2 (some centres not stated) | – | – | 10 µM | inactive | 10 µM | 10 µM | 10 µM | 10 µM | 10 µM | 10 µM | 10 µM | 10 µM |
| O=C(O)CCCNC(=O)C1C(C(=O)O)[C@@H]2CC[C@H]1O2 (some centres not stated) | – | – | 10 µM | inactive | 10 µM | 10 µM | 10 µM | 10 µM | 10 µM | 10 µM | 10 µM | 10 µM |
| N#C/C(=C\c1ccc[nH]1)c1ccc(F)cc1 | 50 µM | 10 µM | – | – | – | – | – | – | – | – | – | – |
| N#C/C(=C\c1ccc[nH]1)c1ccccc1 | 100 µM | 6 µM | – | – | – | – | – | – | – | – | – | – |
| O=C(O)C1C(C(=O)NCCc2ccccc2)[C@H]2CC[C@@H]1O2 (some centres not stated) | – | – | 10 µM | inactive | 10 µM | 10 µM | 10 µM | 10 µM | 10 µM | 10 µM | 10 µM | 10 µM |
| O=C(O)C1C(C(=O)Nc2ccccc2)[C@H]2CC[C@@H]1O2 (some centres not stated) | – | – | 10 µM | inactive | 10 µM | 10 µM | 10 µM | 10 µM | 10 µM | 10 µM | 10 µM | 10 µM |
| O=C(O)C1C(C(=O)Nc2ccc(O)cc2)[C@H]2CC[C@@H]1O2 (some centres not stated) | – | – | 10 µM | inactive | 10 µM | 10 µM | 10 µM | 10 µM | 10 µM | 10 µM | 10 µM | 10 µM |
| CCCCCCCCCCN1C(=O)[C@@H]2[C@H](C1=O)[C@H]1CC[C@@H]2O1 | 90 µM | 30 µM | – | – | – | – | – | – | – | – | – | – |
| CCOC(=O)c1cn[nH]c1NC(=O)C1C(C(=O)O)[C@@H]2CC[C@H]1O2 (some centres not stated) | – | – | 10 µM | inactive | 10 µM | 10 µM | 10 µM | 10 µM | 10 µM | 10 µM | 10 µM | 10 µM |
| CCCNC(=O)C1C(C(=O)O)[C@@H]2CC[C@H]1O2 (some centres not stated) | – | – | 10 µM | inactive | 10 µM | 10 µM | 10 µM | 10 µM | 10 µM | 10 µM | 10 µM | 10 µM |
| C/C(=N/Nc1ccccc1)c1ccccc1NC(=O)C1C(C(=O)O)[C@@H]2CC[C@H]1O2 (some centres not stated) | – | – | 10 µM | inactive | 10 µM | 10 µM | 10 µM | 10 µM | 10 µM | 10 µM | 10 µM | 10 µM |
| O=C(O)C1C(C(=O)Nc2ccc(Br)cc2)[C@H]2CC[C@@H]1O2 (some centres not stated) | – | – | 10 µM | inactive | 10 µM | 10 µM | 10 µM | 10 µM | 10 µM | 10 µM | 10 µM | 10 µM |
| N#C/C(=C\c1ccc[nH]1)c1ccc(Cl)c(Cl)c1 | 12.5 µM | 7 µM | – | – | – | – | – | – | – | – | – | – |

From ChEMBL document CHEMBL1777719, “Norcantharidin analogues with nematocidal activity in Haemonchus contortus” (Bioorg Med Chem Lett, 2011)
